Results from patent publication US11098044B2, “Imidazopyridinyl compounds and use thereof for treatment of neurodegenerative disorders” (1ST Biotherapeutics, Inc., priority 2019, dated 2021).
Structures can show the parent of a compound that is named as a salt.

Key:
Type in all cases: biochemical
[1] = molecular target: LRRK2 G2019S (Homo sapiens (Human), UniProt Q5S007, G2019S); experiment: LRRK2 G2019S Kinase Assay (Adapta); conditions: 100 μM ATP, LRRKtide substrate; read-out: LRRK2_G2019S IC50
Description: (§1) The LRRK2 and LRRK2 G2019S kinase assays were performed using the Adapta™ technology in ThermoFisher Scientific. This experiment was carried out according to the supplier's protocol. Briefly, assay conditions were as follows. The mixture of substrate (LRRKtide) and each kinase was prepared in 50 mM Tris pH 8.5, 0.01% BRIJ-35, 10 mM MgCl2, 1 mM EGTA, 0.02% NaN3. Assays were performed in the presence of 70 μM ATP and 100 μM ATP (KmATP) in LRRK2 and LRRK2 G2019S, respectively. The reaction was progressed at room temperature for 1 hour. Upon completion of kinase reaction, 5 μL of Detection Mix was added and after 60 min incubation time, the emission ratio of 665/615 nm was calculated.

[2] = molecular target: LRRK2 (WT) (Homo sapiens (Human), UniProt Q5S007); experiment: LRRK2 Kinase Assay (Adapta); conditions: 70 μM ATP, LRRKtide substrate
Description: as §1

[3] = molecular target: c-Abl (His-tagged recombinant human ABL1) (Homo sapiens (Human), UniProt P00519); experiment: c-abl Kinase Assay (ADP-Glo); conditions: ATP (25 μM), Abltide substrate
Description: ADP-Glo assay kit was purchased from Promega. Magnesium chloride (MgCl2), bovine serum albumin (BSA), ethylene glycol-bis(p-aminoethyl ether)-N,N,N′,N′-tetraacetic acid (EGTA), triton X-100, 1,4-dithiothreitol (DTT) and dimethyl sulfoxide (DMSO) were purchased from Sigma-Aldrich. HEPES buffer was purchased from Gibco. ABL1 kinase and Abltide were purchased from Signalchem.
c-Abl kinase activity was measured by Promega's ADP-Glo™ Assay. In this assay, His-tagged recombinant human ABL1 (0.25 ng/μl) is incubated with 5 μL of compounds (0.5% DMSO), 5 μL of Abltide (0.01 μg/μl) and 5 μL of ATP (25 μM) in buffer (50 mM HEPES, 7.5; 10 mM MgCl2; 1 mM EGTA; 0.05% BSA; 0.01% Triton X-100; 2 mM DTT). The assay was started by incubating the reaction mixture in a 96-well plate at 30° C. for 30-min. After the incubation, 25 μL ADP-Glo reagent was added and the reaction was incubated at room temperature for 40-min to stop the reaction and degrade residual ATP. The ADP product was then converted to ATP by adding 50 μL per well of detection reagent. Luminescence was detected after 30-min room temperature incubation with the Molecular device I3X plate reader. The IC50 values were calculated from a series of percent inhibition values determined at a range of inhibitor concentration using software routines as implemented in the GraphPad Prism 7 software and Sigma Plot 13.0.

Sequence of LRRK2 (WT) (Q5S007 whole entry): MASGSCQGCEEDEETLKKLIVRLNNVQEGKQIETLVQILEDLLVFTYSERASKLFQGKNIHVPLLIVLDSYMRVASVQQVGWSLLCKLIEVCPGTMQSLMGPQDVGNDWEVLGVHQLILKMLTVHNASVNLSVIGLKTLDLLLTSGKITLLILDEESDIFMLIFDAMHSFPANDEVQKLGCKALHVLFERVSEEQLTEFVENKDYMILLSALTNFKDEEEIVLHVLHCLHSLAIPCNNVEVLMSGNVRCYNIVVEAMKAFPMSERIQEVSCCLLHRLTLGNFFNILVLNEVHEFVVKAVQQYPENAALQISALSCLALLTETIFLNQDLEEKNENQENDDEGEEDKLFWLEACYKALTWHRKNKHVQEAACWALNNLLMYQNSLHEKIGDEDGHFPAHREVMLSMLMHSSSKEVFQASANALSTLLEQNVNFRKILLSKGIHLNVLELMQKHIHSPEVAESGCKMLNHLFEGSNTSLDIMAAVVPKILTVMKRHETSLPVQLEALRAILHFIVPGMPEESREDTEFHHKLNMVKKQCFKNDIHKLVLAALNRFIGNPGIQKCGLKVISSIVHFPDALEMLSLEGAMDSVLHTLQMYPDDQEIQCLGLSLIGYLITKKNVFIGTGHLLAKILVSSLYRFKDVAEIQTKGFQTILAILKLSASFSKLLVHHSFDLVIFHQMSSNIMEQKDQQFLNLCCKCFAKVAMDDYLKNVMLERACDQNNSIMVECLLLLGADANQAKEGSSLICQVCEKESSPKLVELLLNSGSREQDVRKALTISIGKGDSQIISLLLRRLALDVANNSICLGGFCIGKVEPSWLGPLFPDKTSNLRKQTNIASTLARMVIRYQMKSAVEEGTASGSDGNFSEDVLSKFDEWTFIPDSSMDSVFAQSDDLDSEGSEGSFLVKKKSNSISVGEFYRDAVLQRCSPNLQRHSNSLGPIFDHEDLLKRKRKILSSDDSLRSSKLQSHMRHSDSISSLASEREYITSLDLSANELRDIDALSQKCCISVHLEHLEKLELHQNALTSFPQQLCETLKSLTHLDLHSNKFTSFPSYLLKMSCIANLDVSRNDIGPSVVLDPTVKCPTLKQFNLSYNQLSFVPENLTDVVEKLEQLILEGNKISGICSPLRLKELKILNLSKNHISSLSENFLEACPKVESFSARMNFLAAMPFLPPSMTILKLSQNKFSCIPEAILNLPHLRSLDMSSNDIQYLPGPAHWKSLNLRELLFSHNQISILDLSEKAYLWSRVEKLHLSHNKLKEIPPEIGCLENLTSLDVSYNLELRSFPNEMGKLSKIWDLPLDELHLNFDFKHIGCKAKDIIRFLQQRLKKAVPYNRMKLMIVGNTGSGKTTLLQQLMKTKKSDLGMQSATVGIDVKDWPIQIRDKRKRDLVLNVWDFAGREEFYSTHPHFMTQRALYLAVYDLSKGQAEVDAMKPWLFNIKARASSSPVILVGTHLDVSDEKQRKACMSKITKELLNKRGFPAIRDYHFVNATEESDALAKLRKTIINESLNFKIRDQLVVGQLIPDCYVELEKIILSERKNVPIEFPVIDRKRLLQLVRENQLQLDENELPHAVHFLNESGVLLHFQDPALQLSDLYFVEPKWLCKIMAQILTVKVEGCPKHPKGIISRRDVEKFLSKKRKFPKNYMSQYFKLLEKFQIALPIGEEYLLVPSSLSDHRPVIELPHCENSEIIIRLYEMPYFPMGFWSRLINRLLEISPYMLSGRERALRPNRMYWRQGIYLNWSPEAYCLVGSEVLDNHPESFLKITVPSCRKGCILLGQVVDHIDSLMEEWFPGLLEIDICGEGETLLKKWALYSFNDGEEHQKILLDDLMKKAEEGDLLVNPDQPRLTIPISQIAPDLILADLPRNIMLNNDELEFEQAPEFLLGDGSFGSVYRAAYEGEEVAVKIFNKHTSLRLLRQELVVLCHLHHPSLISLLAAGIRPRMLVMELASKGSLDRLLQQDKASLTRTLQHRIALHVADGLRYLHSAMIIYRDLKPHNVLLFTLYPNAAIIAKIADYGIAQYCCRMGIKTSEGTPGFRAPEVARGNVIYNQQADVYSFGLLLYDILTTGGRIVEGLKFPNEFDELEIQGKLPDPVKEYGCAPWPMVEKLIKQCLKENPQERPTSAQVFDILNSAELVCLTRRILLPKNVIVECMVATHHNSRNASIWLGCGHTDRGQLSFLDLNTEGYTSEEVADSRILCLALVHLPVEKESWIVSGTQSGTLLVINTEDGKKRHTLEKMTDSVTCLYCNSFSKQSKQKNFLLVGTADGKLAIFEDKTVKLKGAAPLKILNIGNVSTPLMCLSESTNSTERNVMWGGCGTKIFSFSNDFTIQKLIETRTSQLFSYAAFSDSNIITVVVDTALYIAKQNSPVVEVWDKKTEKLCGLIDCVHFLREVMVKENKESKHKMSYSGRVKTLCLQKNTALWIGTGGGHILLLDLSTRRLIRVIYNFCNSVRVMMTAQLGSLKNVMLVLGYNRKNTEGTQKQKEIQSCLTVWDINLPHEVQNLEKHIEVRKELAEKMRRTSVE
Sequence of c-Abl (His-tagged recombinant human ABL1) (P00519 whole entry): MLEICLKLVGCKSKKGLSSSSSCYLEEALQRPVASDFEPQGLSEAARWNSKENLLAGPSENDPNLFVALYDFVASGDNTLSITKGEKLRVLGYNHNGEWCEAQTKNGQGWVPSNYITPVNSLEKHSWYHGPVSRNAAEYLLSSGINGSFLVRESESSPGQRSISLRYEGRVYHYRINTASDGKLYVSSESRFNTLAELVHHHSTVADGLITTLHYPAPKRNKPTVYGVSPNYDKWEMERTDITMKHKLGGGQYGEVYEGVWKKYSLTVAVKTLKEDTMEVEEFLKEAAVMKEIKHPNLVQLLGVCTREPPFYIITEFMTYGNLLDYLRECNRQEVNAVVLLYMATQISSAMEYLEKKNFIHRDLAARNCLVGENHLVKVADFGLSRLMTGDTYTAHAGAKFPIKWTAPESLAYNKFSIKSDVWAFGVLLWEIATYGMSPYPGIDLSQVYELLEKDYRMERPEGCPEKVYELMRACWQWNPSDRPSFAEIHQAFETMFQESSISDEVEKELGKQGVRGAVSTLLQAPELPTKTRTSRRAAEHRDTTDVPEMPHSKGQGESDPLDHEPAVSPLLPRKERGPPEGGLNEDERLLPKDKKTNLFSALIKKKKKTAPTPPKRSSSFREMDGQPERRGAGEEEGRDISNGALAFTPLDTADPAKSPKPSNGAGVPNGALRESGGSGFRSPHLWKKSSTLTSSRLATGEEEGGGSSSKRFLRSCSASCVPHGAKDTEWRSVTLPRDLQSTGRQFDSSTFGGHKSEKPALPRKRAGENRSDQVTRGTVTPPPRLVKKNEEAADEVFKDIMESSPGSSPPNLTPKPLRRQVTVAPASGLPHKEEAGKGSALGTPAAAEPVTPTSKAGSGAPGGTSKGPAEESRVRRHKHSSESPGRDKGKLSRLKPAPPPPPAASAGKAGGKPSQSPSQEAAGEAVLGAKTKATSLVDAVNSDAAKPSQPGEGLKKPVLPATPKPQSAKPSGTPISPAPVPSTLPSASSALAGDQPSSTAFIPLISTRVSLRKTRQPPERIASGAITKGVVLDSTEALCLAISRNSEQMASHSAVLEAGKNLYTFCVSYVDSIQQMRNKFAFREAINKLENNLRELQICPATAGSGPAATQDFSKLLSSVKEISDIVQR
Sequence of LRRK2 G2019S (Q5S007 whole entry G2019S): as the sequence (Q5S007 whole entry) above, with G2019S counted along it

IC50 [1]	IC50 [2]	IC50 [3]	SMILES
0.01 to 0.1 µM	0.101 to 1 µM	< 0.01 µM	Cc1c(F)cccc1-c1ccc2nc(NC(=O)[C@H]3C[C@@H]3F)cn2c1 (stereo in doubt) [Example 71, 2-fluoro-N-(6-(3-fluoro-2-methylphenyl)imidazo[1,2-a]pyridin-2-yl)cyclopropanecarboxamide]
0.01 to 0.1 µM	0.01 to 0.1 µM	< 0.01 µM	Cc1c(F)cccc1-c1ccc2nc(NC(=O)[C@@H]3C[C@H]3F)cn2c1 (stereo in doubt) [Example 72, 2-fluoro-N-(6-(3-fluoro-2-methylphenyl)imidazo[1,2-a]pyridin-2-yl)cyclopropanecarboxamide]
0.01 to 0.1 µM	0.101 to 1 µM	< 0.01 µM	Cc1c(F)cccc1-c1ccc2nc(NC(=O)[C@H]3C[C@H]3F)cn2c1 (stereo in doubt) [Example 73, 2-fluoro-N-(6-(3-fluoro-2-methylphenyl)imidazo[1,2-a]pyridin-2-yl)cyclopropanecarboxamide]
0.01 to 0.1 µM	0.01 to 0.1 µM	< 0.01 µM	Cc1c(F)cccc1-c1ccc2nc(NC(=O)[C@@H]3C[C@@H]3F)cn2c1 [Example 1, (1S,2S)-2-fluoro-N-(6-(3-fluoro-2-methylphenyl)imidazo[1,2-a]pyridin-2-yl)cyclopropane-1-carboxamide Hydrochloride]
0.01 to 0.1 µM	0.101 to 1 µM	< 0.01 µM	Cc1cccc(F)c1-c1ccc2nc(NC(=O)[C@@H]3C[C@@H]3F)cn2c1 [Example 2, (1S,2S)-2-fluoro-N-(6-(2-fluoro-6-methylphenyl)imidazo[1,2-a]pyridin-2-yl)cyclopropane-1-carboxamide]
0.101 to 1 µM	0.101 to 1 µM	0.01 to 0.1 µM	Cc1c(F)cccc1-c1ccc2nc(NC(=O)[C@@H]3C[C@@H]3F)c(Cl)n2c1 [Example 3, (1S,2S)—N-(3-chloro-6-(3-fluoro-2-methylphenyl)imidazo[1,2-a]pyridin-2-yl)-2-fluorocyclopropane-1-carboxamide]
0.101 to 1 µM	0.101 to 1 µM		Cc1cccc(C)c1-c1ccc2nc(NC(=O)[C@@H]3C[C@@H]3F)cn2c1 [Example 42, (1S,2S)—N-(6-(2,6-dimethylphenyl)imidazo[1,2-a]pyridin-2-yl)-2-fluorocyclopropane-1-carboxamide]
0.01 to 0.1 µM	0.01 to 0.1 µM		COc1ccncc1-c1ccc2nc(NC(=O)[C@@H]3C[C@@H]3F)cn2c1 [Example 48, (1S,2S)-2-fluoro-N-(6-(4-methoxypyridin-3-yl)imidazo[1,2-a]pyridin-2-yl)cyclopropane-1-carboxamide]
		0.01 to 0.1 µM	Cc1c(F)cccc1-c1ccc2nc(NC(=O)[C@@H]3C[C@@H]3F)c(Br)n2c1 [Example 58, (1S,2S)—N-(3-bromo-6-(3-fluoro-2-methylphenyl)imidazo[1,2-a]pyridin-2-yl)-2-fluorocyclopropane-1-carboxamide]
0.01 to 0.1 µM	0.101 to 1 µM		Cc1c(F)cccc1-c1ccc2nc(NC(=O)C3CC3(F)F)cn2c1 (centres unmarked) [Example 77, 2,2-difluoro-N-(6-(3-fluoro-2-methylphenyl)imidazo[1,2-a]pyridin-2-yl)cyclopropanecarboxamide]
		< 0.01 µM	Cc1c(-c2ccc3nc(NC(=O)[C@@H]4C[C@@H]4F)cn3c2)cnc2[nH]ccc12 [Example 86, (1S,2S)-2-fluoro-N-(6-(4-methyl-1H-pyrrolo[2,3-b]pyridin-5-yl)imidazo[1,2-a]pyridin-2-yl)cyclopropanecarboxamide]
		< 0.01 µM	O=C(Nc1cn2cc(-c3cnc4[nH]ccc4c3Cl)ccc2n1)[C@@H]1C[C@@H]1F [Example 87, (1S,2S)—N-(6-(4-chloro-1H-pyrrolo[2,3-b]pyridin-5-yl)imidazo[1,2-a]pyridin-2-yl)-2-fluorocyclopropanecarboxamide]
		< 0.01 µM	Cc1ccccc1-c1ccc2nc(NC(=O)[C@@H]3C[C@@H]3F)cn2c1 [Example 88, (1S,2S)-2-fluoro-N-(6-(o-tolyl)imidazo[1,2-a]pyridin-2-yl)cyclopropanecarboxamide]
		< 0.01 µM	O=C(Nc1cn2cc(-c3cccc(F)c3O)ccc2n1)[C@@H]1C[C@@H]1F [Example 89, (1S,2S)-2-fluoro-N-(6-(3-fluoro-2-hydroxyphenyl)imidazo[1,2-a]pyridin-2-yl)cyclopropanecarboxamide]
		< 0.01 µM	Nc1c(F)cccc1-c1ccc2nc(NC(=O)[C@@H]3C[C@@H]3F)cn2c1 [Example 90, (1S,2S)—N-(6-(2-amino-3-fluorophenyl)imidazo[1,2-a]pyridin-2-yl)-2-fluorocyclopropanecarboxamide]
		< 0.01 µM	Cc1cc2cc[nH]c2cc1-c1ccc2nc(NC(=O)[C@@H]3C[C@@H]3F)cn2c1 [Example 91, (1S,2S)-2-fluoro-N-(6-(5-methyl-1H-indol-6-yl)imidazo[1,2-a]pyridin-2-yl)cyclopropanecarboxamide]
		< 0.01 µM	Cc1cc2[nH]ccc2cc1-c1ccc2nc(NC(=O)[C@@H]3C[C@@H]3F)cn2c1 [Example 92, (1S,2S)-2-fluoro-N-(6-(6-methyl-1H-indol-5-yl)imidazo[1,2-a]pyridin-2-yl)cyclopropanecarboxamide]
		0.01 to 0.1 µM	CN(C)c1c(F)cccc1-c1ccc2nc(NC(=O)[C@@H]3C[C@@H]3F)cn2c1 [Example 93, (1S,2S)—N-(6-(2-(dimethylamino)-3-fluorophenyl)imidazo[1,2-a]pyridin-2-yl)-2-fluorocyclopropanecarboxamide]
		< 0.01 µM	Cc1cc2nc[nH]c2cc1-c1ccc2nc(NC(=O)[C@@H]3C[C@@H]3F)cn2c1 [Example 94, (1S,2S)-2-fluoro-N-(6-(5-methyl-1H-benzo[d]imidazol-6-yl)imidazo[1,2-a]pyridin-2-yl)cyclopropanecarboxamide]
		< 0.01 µM	CCc1c(F)cccc1-c1ccc2nc(NC(=O)[C@@H]3C[C@@H]3F)cn2c1 [Example 95, (1S,2S)—N-(6-(2-ethyl-3-fluorophenyl)imidazo[1,2-a]pyridin-2-yl)-2-fluorocyclopropanecarboxamide]
		0.01 to 0.1 µM	O=C(Nc1cn2cc(-c3ccccc3C(F)(F)F)ccc2n1)[C@@H]1C[C@@H]1F [Example 96]
		< 0.01 µM	O=C(Nc1cn2cc(-c3cccc(F)c3C3CC3)ccc2n1)[C@@H]1C[C@@H]1F [Example 97, (1S,2S)—N-(6-(2-cyclopropyl-3-fluorophenyl)imidazo[1,2-a]pyridin-2-yl)-2-fluorocyclopropanecarboxamide]
		< 0.01 µM	CNc1c(F)cccc1-c1ccc2nc(NC(=O)[C@@H]3C[C@@H]3F)cn2c1 [Example 98, (1S,2S)-2-fluoro-N-(6-(3-fluoro-2-(methylamino)phenyl)imidazo[1,2-a]pyridin-2-yl)cyclopropanecarboxamide]
		< 0.01 µM	Cc1cc2ncoc2cc1-c1ccc2nc(NC(=O)[C@@H]3C[C@@H]3F)cn2c1 [Example 99, (1S,2S)-2-fluoro-N-(6-(5-methylbenzo[d]oxazol-6-yl)imidazo[1,2-a]pyridin-2-yl)cyclopropanecarboxamide]
		0.01 to 0.1 µM	Cc1ccc2[nH]cnc2c1-c1ccc2nc(NC(=O)[C@@H]3C[C@@H]3F)cn2c1 [Example 100, (1S,2S)-2-fluoro-N-(6-(5-methyl-1H-benzo[d]imidazol-4-yl)imidazo[1,2-a]pyridin-2-yl)cyclopropane-1-carboxamide]
		< 0.01 µM	Cc1ccc2ocnc2c1-c1ccc2nc(NC(=O)[C@@H]3C[C@@H]3F)cn2c1 [Example 102, (1S,2S)-2-fluoro-N-(6-(5-methylbenzo[d]oxazol-4-yl)imidazo[1,2-a]pyridin-2-yl)cyclopropanecarboxamide]
		< 0.01 µM	Cc1cc2ncsc2cc1-c1ccc2nc(NC(=O)[C@@H]3C[C@@H]3F)cn2c1 [Example 103, (1S,2S)-2-fluoro-N-(6-(5-methylbenzo[d]thiazol-6-yl)imidazo[1,2-a]pyridin-2-yl)cyclopropanecarboxamide]
		< 0.01 µM	Cc1c(-c2ccc3nc(NC(=O)[C@@H]4C[C@@H]4F)cn3c2)ccc2ncsc12 [Example 104, (1S,2S)-2-fluoro-N-(6-(7-methylbenzo[d]thiazol-6-yl)imidazo[1,2-a]pyridin-2-yl)cyclopropanecarboxamide]
		0.101 to 1 µM	CC(C)c1c(F)cccc1-c1ccc2nc(NC(=O)[C@@H]3C[C@@H]3F)cn2c1 [Example 105, (1S,2S)-2-fluoro-N-(6-(3-fluoro-2-isopropylphenyl)imidazo[1,2-a]pyridin-2-yl)cyclopropanecarboxamide]
